In patent US20110189243A1, “PHARMACEUTICAL FORMULATION FOR LOWERING PULMONARY BLOOD PRESSURE” (Ratiopharm GMBH, priority 2008, published 2011):

Test: Particle size by laser diffractometry (Malvern Mastersizer 2000)
Format: physicochemical
Details: after milling 30 minutes at 350 rpm in a Retsch ball mill
Description: The expression “average particle diameter” relates in the context of this invention to the D50 value of the volume-average particle diameter determined by means of laser diffractometry. In particular, a Malvern Instruments Mastersizer 2000 was used to determine the diameter (wet measurement, 2,000 rpm, ultrasound 60 sec., preferably shading 4 to 13%, preferably dispersion in liquid paraffin, the evaluation using the Fraunhofer method). The average particle diameter, which is also referred to as the D50 value of the integral volume distribution, is defined in the context of this invention as the particle diameter at which 50% by volume of the particles have a smaller diameter than the diameter which corresponds to the D50 value. Similarly, 50% by volume of the particles than have a larger diameter than the D50 value. Analogously, the D10 value of the integral volume distribution is defined as the particle diameter at which 10% by volume of the particles have a smaller diameter than the diameter which corresponds to the D10 value. Accordingly, the D90 value of the integral volume distribution is defined as the particle diameter at which 90% by volume of the particles have a smaller diameter than the diameter which corresponds to the D90 value.

particle size d10: 5 μm
particle size d50: 18 μm
particle size d90: 63 μm
Structure (SMILES): COC(c1ccccc1)(c1ccccc1)[C@H](Oc1nc(C)cc(C)n1)C(=O)O [Example 3, (2S)-2-(4,6-dimethylpyrimidin-2-yl)oxy-3-methoxy-3,3-di(phenyl)propanoic acid]
